Test results published in patent publication US11051515B2, “3-acyl-benzamides and their use as herbicides” (Bayer Aktiengesellschaft, priority 2017, dated 2021).

How the values were obtained:
ECHCG [1] = assay: Pre-emergence action against ECHCG; type: in vivo, Echinochloa crus-galli; conditions: pre-emergence, dosage 320 g/ha, scored visually after 3 weeks vs untreated controls
In short: (§1)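 Seeds sown in sandy loam in wood-fiber pots and covered with soil. Greenhouse growth; visual damage scored after 3 weeks versus untreated controls (100% = dead, 0% = like control).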

AMARE [2] = assay: Pre-emergence action against AMARE; type: in vivo, Amaranthus retroflexus; conditions: pre-emergence, dosage 320 g/ha, scored visually after 3 weeks vs untreated controls
In short: as §1

DIGSA [3] = assay: Post-emergence action against DIGSA; type: in vivo, Digitaria sanguinalis; conditions: dosage 80 g/ha, visual assessment about 3 weeks after treatment vs untreated controls
Method: Seeds of monocotyledonous and dicotyledonous weed and crop plants are laid out in sandy loam soil in wood-fiber pots, covered with soil and cultivated in a greenhouse under good growth conditions. 2 to 3 weeks after sowing, the test plants are treated at the one-leaf stage. The compounds of the invention, formulated in the form of wettable powders (WP) or as emulsion concentrates (EC), are then sprayed onto the green parts of the plants in the form of an aqueous suspension or emulsion at a water application rate equating to […], with addition of 0.2% wetting agent. After the test plants have been left to stand in the greenhouse under optimal growth conditions for about 3 weeks, the action of the preparations is assessed visually in comparison to untreated controls (herbicidal action in percent (%): 100% activity=the plants have died, 0% activity=like control plants). […] At the same time, inventive compounds leave Gramineae crops such as barley, wheat, rye, millet/Sorghum, corn or rice virtually undamaged when applied post-emergence, even at high active ingredient dosages. In addition, some substances are also harmless to dicotyledonous crops such as soya, cotton, oilseed rape, sugar beet or potatoes. Some of the compounds according to the invention have high selectivity and are therefore suitable for controlling unwanted vegetation in agricultural crops by the post-emergence method. The data of Tables B18 to B34 below illustrate, in an exemplary manner, the […] herbicidal action of the compounds according to the invention, the herbicidal activity being stated in percent.

VERPE [4] = assay: Post-emergence action against VERPE; type: in vivo, Veronica persica; conditions: dosage 80 g/ha
In short: (§2)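 Post-emergence foliar spray on greenhouse plants at the one-leaf stage, using wettable-powder or emulsion-concentrate formulations in water (600 to […], plus 0.2% wetting agent). Damage scored by eye roughly 3 weeks later against untreated plants: 0% = like control, 100% = dead.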

VIOTR [5] = assay: Post-emergence action against VIOTR; type: in vivo, Viola tricolor; conditions: post-emergence, dosage 80 g/ha
In short: as §2

VIOTR [6] = assay: Pre-emergence action against VIOTR; type: in vivo, Viola tricolor; conditions: Dosage 320 g/ha, pre-emergence
In short: as §1

ABUTH [7] = assay: Pre-emergence action against ABUTH; type: in vivo, Abutilon theophrasti; conditions: pre-emergence, dosage 320 g/ha, scored visually after 3 weeks vs untreated controls
In short: as §1

PHBPU [8] = assay: Post-emergence action against PHBPU; type: in vivo, Pharbitis purpurea; conditions: post-emergence, dosage 80 g/ha
In short: as §2

DIGSA [9] = assay: Pre-emergence action against DIGSA; type: in vivo, Digitaria sanguinalis; conditions: dosage 320 g/ha, scored visually after 3 weeks vs untreated controls
Source text: Seeds of monocotyledonous and dicotyledonous weed plants and crop plants are laid out in sandy loam soil in wood-fiber pots and covered with soil. The compounds of the invention, formulated in the form of wettable powders (WP) or as emulsion concentrates (EC), are then applied to the surface of the covering soil in the form of an aqueous suspension or emulsion at a water application rate equating to […], with addition of 0.2% wetting agent. After the treatment, the pots are placed in a greenhouse and kept under good growth conditions for the trial plants. The damage to the test plants is scored visually after a test period of 3 weeks by comparison with untreated controls (herbicidal activity in percent (%): 100% activity=the plants have died, 0% activity=like control plants).

AMARE [10] = assay: Post-emergence action against AMARE; type: in vivo, Amaranthus retroflexus; conditions: post-emergence, dosage 80 g/ha, visual assessment about 3 weeks after treatment vs untreated controls
In short: as §2

MATIN [11] = assay: Pre-emergence action against MATIN; type: in vivo, Matricaria inodora; conditions: Dosage 320 g/ha, pre-emergence
In short: as §1

ABUTH [12] = assay: Post-emergence action against ABUTH; type: in vivo, Abutilon theophrasti; conditions: post-emergence, dosage 80 g/ha, visual assessment about 3 weeks after treatment vs untreated controls
In short: as §2

STEME [13] = assay: Post-emergence action against STEME; type: in vivo, Stellaria media; conditions: post-emergence, dosage 80 g/ha
In short: as §2

VERPE [14] = assay: Pre-emergence action against VERPE; type: in vivo, Veronica persica; conditions: Dosage 320 g/ha, pre-emergence
In short: as §1

MATIN [15] = assay: Post-emergence action against MATIN; type: in vivo, Matricaria inodora; conditions: post-emergence, dosage 80 g/ha, visual assessment about 3 weeks after treatment vs untreated controls
In short: as §2

SETVI [16] = assay: Pre-emergence action against SETVI; type: in vivo, Setaria viridis; conditions: pre-emergence, dosage 320 g/ha, scored visually after 3 weeks vs untreated controls
In short: as §1

STEME [17] = assay: Pre-emergence action against STEME; type: in vivo, Stellaria media; conditions: Dosage 320 g/ha, pre-emergence
In short: as §1

ALOMY = assay: Pre-emergence action against ALOMY; type: in vivo, Alopecurus myosuroides; conditions: dosage 320 g/ha; pre-emergence; scored visually after 3 weeks vs untreated controls; 100% = plants have died, 0% = like control plants
In short: as §1

POLCO = assay: Post-emergence action against POLCO; type: in vivo, Polygonum convolvulus; conditions: post-emergence, dosage 80 g/ha
In short: as §2

ECHCG [18] = assay: Post-emergence action against ECHCG; type: in vivo, Echinochloa crus-galli; conditions: post-emergence, dosage 80 g/ha, visual assessment about 3 weeks after treatment vs untreated controls
In short: as §2

PHBPU [19] = assay: Pre-emergence action against PHBPU; type: in vivo, Pharbitis purpurea; conditions: Dosage 320 g/ha, pre-emergence
In short: as §1

SETVI [20] = assay: Post-emergence action against SETVI; type: in vivo, Setaria viridis; conditions: post-emergence, dosage 80 g/ha, visual assessment about 3 weeks after treatment vs untreated controls
In short: as §2

AVEFA = assay: Pre-emergence action against AVEFA; type: in vivo, Avena fatua; conditions: dosage 320 g/ha, scored visually after 3 weeks vs untreated controls
In short: as §1

SMILES | Pre-emergence action against ECHCG (herbicidal activity) (ECHCG [1]) [%] | Pre-emergence action against AMARE (herbicidal activity) (AMARE [2]) [%] | Post-emergence action against DIGSA (herbicidal action in percent) (DIGSA [3]) [%] | Post-emergence action against VERPE (VERPE [4]) | Post-emergence action against VIOTR (VIOTR [5]) | Pre-emergence action against VIOTR (VIOTR [6]) [%] | Pre-emergence action against ABUTH (herbicidal activity) (ABUTH [7]) [%] | Post-emergence action against PHBPU (PHBPU [8]) | Pre-emergence action against DIGSA (herbicidal activity) (DIGSA [9]) [%] | Post-emergence action against AMARE (herbicidal action in percent) (AMARE [10]) [%] | Pre-emergence action against MATIN (MATIN [11]) [%] | Post-emergence action against ABUTH (herbicidal action in percent) (ABUTH [12]) [%] | Post-emergence action against STEME (STEME [13]) | Pre-emergence action against VERPE (VERPE [14]) [%] | Post-emergence action against MATIN (herbicidal action in percent) (MATIN [15]) [%] | SETVI (Table B8, pre-emergence herbicidal activity) (SETVI [16]) [%] | Pre-emergence action against STEME (STEME [17]) [%] | Pre-emergence action against ALOMY (herbicidal activity in percent) (ALOMY) [%] | Post-emergence action against POLCO (POLCO) | Post-emergence action against ECHCG (herbicidal action in percent) (ECHCG [18]) [%] | also measured
Cn1nnnc1NC(=O)c1ccc(C(F)(F)F)c(C(=O)C2CCCC2)c1Cl [1-154] | 100 | 100 | 80 | 80 | 80 | 100 | 100 | 80 | 100 | 90 | 100 | 90 | 90 | 90 | 80 | 80 | 100 | – | – | – | –
CCn1nnnc1NC(=O)c1ccc(C(F)(F)F)c(C(=O)C2CCC2)c1Cl [2-153] | – | 100 | 100 | – | 90 | 100 | 100 | 80 | 100 | 90 | 100 | 100 | 100 | 100 | 100 | 100 | 90 | 90 | 80 | 90 | –
CCn1nnnc1NC(=O)c1ccc(C(F)(F)F)c(C(=O)C(F)F)c1Cl [2-163] | 90 | 100 | 100 | – | 100 | 100 | 100 | 90 | 90 | 100 | 100 | 90 | 100 | – | 90 | 100 | 100 | – | – | 90 | Pre-emergence action against PHBPU (PHBPU [19]): 100%; Post-emergence action against SETVI (herbicidal action in percent) (SETVI [20]): 80%
CCn1nnnc1NC(=O)c1ccc(C(F)(F)F)c(C(=O)C2CCC2)c1SC [2-284] | 100 | 100 | 90 | 80 | 80 | 100 | 100 | 90 | 100 | 100 | 100 | 100 | 100 | 100 | 90 | 100 | 100 | 90 | 80 | 90 | Pre-emergence action against PHBPU (PHBPU [19]): 80%; Pre-emergence action against AVEFA (herbicidal activity) (AVEFA): 90%; Post-emergence action against SETVI (herbicidal action in percent) (SETVI [20]): 100%
CCCn1nnnc1NC(=O)c1ccc(C(F)(F)F)c(C(=O)C2CCC2)c1Cl [3-153] | – | 100 | 80 | – | – | 100 | 100 | – | 100 | 100 | 90 | 100 | 100 | – | 100 | 80 | – | – | – | – | –
CCCn1nnnc1NC(=O)c1ccc(C(F)(F)F)c(C(=O)C2CCC2)c1SC [3-280] | 80 | 100 | 80 | – | 80 | 100 | 100 | 80 | 100 | 100 | 90 | 100 | 100 | – | 90 | 100 | 100 | – | – | 80 | –
